The record followed here is patent US10208007B2, “Use of strigolactones and strigolactone analogs for treating proliferative conditions” (The State of Israel, Ministry of Agriculture & Rural …, priority 2011, dated 2019).

The subject of one test is GRIM REAPER (GRI). Description: Gene transcription level by quantitative PCR: GRI. The format is in vivo, Arabidopsis thaliana. As to the method:
Seeds of homozygous lines of Arabidopsis thaliana wild type (WT; Columbia; Col-0) and max2-1 mutant (http://abrc.osu.edu/) were surface-sterilized and germinated on 1/2 Murashige and Skoog (MS) plates supplemented with 1% sucrose and solidified with 0.7% agar. Plates were incubated vertically in the dark at 4° C. for two days to synchronize germination. Three days after germination, seedlings were gently transferred using forceps to 1/2 MS plates containing various concentrations of GR-24 as a mixture of four diastereomers: (±)-GR-24 and (±)-2'-epi-GR-24. The root tip of the transferred seedling was marked on the plates. The plates remained unsealed to prevent accumulation of gases (e.g., ethylene), and were positioned in an upright 45° position, and incubated at 22° C. with a light intensity of […] m-2 s-1 provided by white fluorescent tubes and under a photoperiod of 16 hours exposure to light/8 hours in the dark for 6-12 days. GR-24 treatments were conducted at concentrations ranging from 2.7×10^-6 to 13.5×10^-6 M. […] GR-24, ST-357 and ST-362 were initially dissolved in acetone to give a 4.5 mM, 10 μM and 10 μM solutions, respectively, which were then further diluted with double-distilled sterile water (DDW). […] In each of the experiments, non-treated roots were compared to the respective acetone control. Where no difference was observed between the various controls, non-treated roots are shown. Where differences were recorded between non-treated and acetone controls, the comparison was made between GR-24, ST-357 and ST-362-treated and acetone-treated roots. RNA was extracted from seedlings grown and treated as described in Example 1. Quantitative PCR was performed by amplifying fragments of genes of interest (Tables 6 & 7). Arabidopsis 15S ribosomal RNA (GenBank accession no. AT1G04270.1) served as the reference gene for the amount of RNA, and was amplified using specific primers (forward) [NT] and (reverse) [NT]. The experiment was performed in 5-6 biological replicates; each replicate included 8 plants, on which 3 technical repeats were performed. Means and standard error were determined from all biological replicates. Primers were designed using PrimerQuest software (Integrated DNA Technologies). RNA was extracted using Trizol (Invitrogen, Carlsbad, Calif., USA) using the manufacturer's protocol. 1 μg RNA was reverse-transcribed in a total volume of 20 μl using the Superscript First strand cDNA synthesis kit (Invitrogen). […] The expression of each target gene was normalized to the expression of GAPDH RNA and is presented as the ratio of the target gene to GAPDH RNA, expressed as 2-ΔCt, where Ct is the threshold cycle and ΔCt=[NT] […]

The next test deals with BJ fibroblasts. Description: Crystal violet monolayer growth assay. The format is cell-based, human. As to conditions: up to 10 ppm, up to 10 days. The protocol:
(§1) Cells were seeded at 1500 (MDA-MB-231, MDA-MB-436 and BJ fibroblasts) or 4000 cells per well of 96 well plates. […] At the indicated time points, individual plates were fixed and stained with crystal violet-methanol solution (50 μl per well) for 15 minutes, washed several times with distilled water and plates were air dried overnight. Sodium citrate solution (0.1M) was used to solubilize bound crystal violet and optical densities were measured at 560 nm (Glomax®-Multi Detection plate reader, Promega).
(§2) Cells (MDA-MB-231, MDA-MB-436 and BJ fibroblasts) were seeded at 1500 or 4000 cells per well of 96 well plates. […] At the indicated time points, individual plates were fixed and stained with crystal violet solution (0.5% crystal violet and 25% methanol) for 15 min, washed several times in distilled water and air dried overnight. Sodium citrate solution (0.1M) was used to solubilize bound crystal violet and optimal densities were measured at 560 nm (Glomax®—Multi Detection plate reader, Promega).
(§3) The effect of GR-24 (FIG. 3) on long-term cancer cell line growth was assessed by crystal violet assay. MCF-7 (estrogen receptor positive (ER+), tumorigenic, nonmetastatic), (A) MDA-MB-231, MDA-MB-436 (ER negative (−), metastatic) and BJ fibroblasts (normal, non-neoplastic line) were treated with GR-24 at a dose range of 0.5 to 10 ppm (1.65-33 μM). Growth was monitored for up to 10 days. At the indicated time points, plates were stained with crystal violet. Data are reported as the Percent Absorbance (560 nm) of vehicle control. Average±standard deviations (SD). Student's t-test (2-tailed, paired) was used to evaluate GR-24 treated groups with vehicle (control) groups at final time point and regarded as being significant if p<0.05 (*), very significant if p<0.01 (**), extremely significant if p<0.001 (***). (B) Is a graph showing the light absorbance reading (560 nm) after 7 days exposure to the indicated doses of GR-24. Data expressed as a percentage of vehicle controls. Average of triplicate samples+SD. Horizontal line (---) marks 50% reduction in Absorbance (560 nm) relative to vehicle controls.

For a further test, the system named is MCF-7. Description: Crystal violet monolayer growth assay. The format is cell-based, human. The protocol: as §1, §2, §3
The subject of the next test is MDA-MB-231. Kind of test: Crystal violet monolayer growth assay. The format is cell-based, human. As to conditions: for IC50: after 7 days, read-out: IC50 of long-term proliferation. As to the method: as §1, §2, §3
The next test relates to MDA-MB-436. Description: Crystal violet monolayer growth assay. The format is cell-based, human. To be noted: for IC50: after 7 days, read-out: IC50 of long-term proliferation. The protocol: as §1, §2, §3

Read-outs that look alike come from different tables or passages of the source.

`CC1=C[C@H](O/C=C2/C(=O)O[C@@H]3c4ccccc4C[C@H]23)OC1=O` (relative stereo) [GR-24, (3aR*,8bS*,E)-3-(((R*)-4-methyl-5-oxo-2,5-dihydrofuran-2-yloxy)methylene)-3,3a,4,8b-tetrahydro-2H-indeno[1,2-b]furan-2-one]: the “GRI gene expression induction” value with GRIM REAPER (GRI) (3 μM) was 2.3 fold. The “GRI transcription level versus controls” value is on record as 33.008 ± 7.121 with GRIM REAPER (GRI) (WT seedlings, 3 μM) and 0.214 ± 0.193 with GRIM REAPER (GRI) (max2-1 seedlings, 3 μM). Besides, the GRI gene transcription result in the test with GRIM REAPER (GRI) (max2-1 mutants) was “not induced”. Also, the “Growth compared to vehicle” value in the test with BJ fibroblasts is listed as “no significant reduction in growth”. For the same molecule, the IC50 was determined as 18.8 µM in the test with MCF-7 (Homo sapiens, MCF7, 168 h, after 7 days, read-out: IC50 of long-term proliferation); 22.1 µM in the test on MDA-MB-231 (Homo sapiens, MDA-MB-231, 168 h); 18.8 µM in the test with MDA-MB-231; 18.8 µM in the test with MDA-MB-436 (Homo sapiens, MDA-MB-436, 168 h); 17.2 µM in the test with MDA-MB-436. Moreover, in the test on MCF-7 (after 7 days), the “IC50 of long-term proliferation” value is reported as 5.7 ppm. The “Concentrations resulting in a significant reduction in growth compared to vehicle” value in the test on MCF-7 (up to 10 days), in the test on MDA-MB-231 (up to 10 days) and in the test with MDA-MB-436 (up to 10 days) was 2.5-5 ppm each time.
